Assay results as given in patent US20230174938A1, “METHODS AND COMPOSITIONS FOR GENERATING HUMAN ERYTHROID PROGENITOR CELLS” (Trailhead Biosystems Inc., priority 2021, published 2023).

How the values were obtained:
[1] = tested on: GATA1 bipotential progenitor (MEP progenitor) from human cord blood CD34+ cells; assay: HD-DoE 12-factor experiment optimized for maximum expression of HBA1 (stage 2); format: cell-based; settings: 12-factor model optimized for maximum HBA1 expression; 3 days after stage 1
Experimental: To engineer the stage 2 media, first CD34+ cells from human cord blood cells were cultured for 5 days in stage 1 media (Table 1), which converts hematopoietic stem cells to a GATA1 bipotential progenitor (MEP progenitor). This progenitor has the potential to differentiate to erythroid and megakaryocyte lineages. To further guide the differentiation of GATA1 bipotential progenitor, an additional HD-DoE experiment was performed. […] The basis of this was a 12-factor HD-DoE experiment with focus on differentiation of cells toward the erythroid lineage for an additional 3 days after termination of stage 1 treatment.
To test the effectors, 96 different combinations of effectors generated using Design-of-Experiments compression through D-optimality were robotically prepared. The effector combinations were prepared in a basal media and were subsequently added to the cells, which were then allowed to differentiate. Three days later RNA extraction was performed, and gene expression was obtained using quantitative PCR analysis. The data were normalized and modeled using partial least squares regression analysis to the effector design, resulting in the generation of gene-specific models, which after model tuning for maximal Q2 predictive power, provided explanation of the effectors ability to control the expression of individual genes, combinatorically, and individually. Solutions within the tested space could then be explored to address desirability.
This model was derived from initial testing of twelve factors including: HB-EGF, Optiferrin, SR1, knockout serum, ibuprofen, GM-CSF, holo-transferrin, EPO, eltrombopag, Neuregulin 1, THI0019 and AICAR.

[2] = tested on: erythroid progenitors from GATA1+ MEP cells; assay: Factor criticality analysis (dynamic profile), stage 2 recipe; format: cell-based, human; design: unit not given here
Experimental: (§1) To assess the impact of the elimination of each validated factor identified for the stage 1 and 2 recipes as described in Example 1, dynamic profile analysis was used and compared the expression level of genes of interest in absence of each finalized factor while others are present.
In the stage 2 recipe, each of the five finalized factors was removed while the other four factors remained present and the expression levels of GATA1, HBA1, GYPA (CD235) and TFRC were assessed compared to the presence of all five factors. When EPO was removed, the values of GATA1 decreased from 1386 to 736, the values of HBA1 changed from 700 to 285, the values of GYPA decreased from 345 to 61 and the values of TFRC dropped from 2943 to 898. All changes represent a significant loss of expression of a desired gene.

[3] = tested on: MEP progenitor from CD34+ HSCs; assay: Factor criticality analysis (dynamic profile), stage 1 recipe; format: cell-based, human; design: unit not given here
Experimental: as §1
In the stage 1 recipe, each of the five finalized factors was removed while the other four factors remained present and the expression levels of GATA2, GATA1, CD36 and TFRC were assessed compared to the presence of all five factors.

[4] = tested on: CD34+ population of cells isolated from cord blood; assay: HD-DoE 8-factor experiment optimized for maximum expression of GATA1 (stage 1); format: cell-based, human; settings: for factor contribution: 8-factor model optimized for maximum GATA1 expression, 3-day treatment
Experimental: The effector combinations were prepared in a basal media and were subsequently added to the cells, which were then allowed to differentiate. […] Solutions within the tested space could then be explored to address desirability.

HBA expression = assay: Refinement of stage 2 recipe: HBA expression modelling and cell number; format: cell-based, human; settings: higher concentration: holo-transferrin 600 ug/mL, EPO 4 U/mL; or supplement added
Experimental: In order to refine the stage 2 recipe, more modelling experiments were conducted using the same factors as the stage 2 recipe but testing different concentrations of critical factors such as EPO and holo-transferrin. Additionally, because lipid inputs are critical for RBC differentiation, a commercial cholesterol supplement (Sigma) was tested.

CD34 cells = assay: HD-DoE 6-factor experiment optimized for maximum expression of GATA1; format: cell-based, human
Experimental: To test whether EPO or other commonly used cytokines are required for GATA1 induction, we conducted experiments with 6 factors in a range of concentrations. On this experiment CD34 cells were thawed and kept overnight in media containing SCF 10 ng/mL. On the next day, 48 different combinations of effectors were added to the cells, and SCF 5 ng/mL was kept in all the wells.

[5] = named factor removed, other four present

With `NC(=O)c1ncn([C@@H]2O[C@H](CO)[C@@H](O)[C@H]2O)c1N` [AICAR, reference compound] the factor contribution [1] was 9, the GYPA expression ([2]; all five factors present) was 337 and the HBA1 expression ([2]; all five factors present) was 689. The GYPA expression [2, 5] was 256 and the HBA1 expression [2, 5] was 569.

With `C=C1C(=O)O[C@@H]2C[C@@]3(C)CCC[C@H](C)C3=C[C@H]12` [Alantolactone] the GATA1 expression ([3]; all five factors present) was 510, the GATA1 expression [3, 5] was 460 and the factor contribution [4] was 8. For the same molecule, the “impact on GATA1 expression” value ([4]; 8-factor model, GATA1) was “supportive of GATA1 induction”.

`NC1(c2ccc(-c3nc4ccn5c(=O)[nH]nc5c4cc3-c3ccccc3)cc2)CCC1` [MK2206] showed a GATA1 expression ([3]; all five factors present) of 510, a GATA1 expression [3, 5] of 400 and a factor contribution [4] of 17.

With `CC(C)n1cnc2c(NCCc3ccc(O)cc3)nc(-c3csc4ccccc34)nc21` [SR1] the factor contribution [1] was 7, the GATA1 expression ([3]; all five factors present) was 510 and the TFRC expression ([3]; all five factors present) was 970. For the same molecule, the GATA1 expression [3, 5] was 410, the TFRC expression [3, 5] was 570 and the HBA1 expression ([2]; all five factors present) was 700. The HBA1 expression [2, 5] was 597 and the factor contribution [4] was 6.

With EPO: EPOR agonist, erythropoietin the HBA expression (HBA expression) was “higher HBA expression”, the factor contribution [1] was 31 and the GATA1 expression ([2]; all five factors present) was 1386. For the same molecule, the GYPA expression ([2]; all five factors present) was 345, the HBA1 expression ([2]; all five factors present) was 700 and the TFRC expression ([2]; all five factors present) was 2943. The GATA1 expression [2, 5] was 736, the GYPA expression [2, 5] was 61 and the HBA1 expression [2, 5] was 285. The TFRC expression [2, 5] was 898 and the “requirement for GATA1 induction” value (CD34 cells; 6-factor model) was “not required for GATA1 induction”.

With holotransferrin: Iron source the HBA expression (HBA expression) was “higher HBA expression”, the GATA1 expression ([2]; all five factors present) was 1370 and the GYPA expression ([2]; all five factors present) was 330. The HBA1 expression ([2]; all five factors present) was 688, the TFRC expression ([2]; all five factors present) was 2883 and the GATA1 expression [2, 5] was 967. The GYPA expression [2, 5] was 170, the HBA1 expression [2, 5] was 500 and the TFRC expression [2, 5] was 1703.

B1: Activin A: a member of the TGFβ family (protein, UniProt P08476 311-426, looked up)
Inhibin beta A chain: GLECDGKVNICCKKQFFVSFKDIGWNDWIIAPSGYHANYCEGECPSHIAGTSGSSLSFHSTVINHYRMRGHSPFANLKSCCVPTKLRPMSMLYYDDGQNIIKKDIQNMIVEECGCS
With B1 the factor contribution (CD34 cells; 6-factor model optimized for maximum GATA1 expression, SCF 5 ng/mL in all wells) was 33.
